According to patent US20140297199A1, “DRUG SCREENING METHOD AND USES THEREOF” (COLD SPRING HARBOR LABORATORY, priority 2011, published 2014):
“Also recorded” adds a separate entry of the source.

System: c-fos-GFP expression in the mouse brain
Experiment: c-fos-GFP pharmacomaps of three antipsychotics at a moderate dosage (Example 9)
Details: 5 mouse brains per drug; for brain regions activated (pharmacomap): haloperidol 0.25 mg/kg, risperidone 1.0 mg/kg, aripiprazole 1.0 mg/kg, vs saline; for c-fos-GFP activation, Anterior cingulate cortex (ACAd) / c-fos-GFP activation, Anterior cingulate cortex (ACAv) / c-fos-GFP activation, Basal, Central, Cortic. Amydgala (AMG) / c-fos-GFP activation, Bed nucleus of Stria Terminalis (BST) / c-fos-GFP activation, Caudate-putamen (CP, dorso-medial) / c-fos-GFP activation, Caudate-putamen (CP, ventro-medial) / c-fos-GFP activation, Caudoputamen (CP, dorsolateral) / c-fos-GFP activation, Caudoputamen (CP, ventrolateral) / c-fos-GFP activation, Central medial thalamic nucleus / c-fos-GFP activation, Claustrum (CLA) / c-fos-GFP activation, Dorsomedial hypoth. (HYP) / c-fos-GFP activation, Gostatory Cx (GU) / c-fos-GFP activation, Hippocampus: CA1, CA2, CA3 (HF) / c-fos-GFP activation, Hippocampus: DG / c-fos-GFP activation, Hypothalamus, ventromedial nuclei / c-fos-GFP activation, Infralimbic cortex (IL) / c-fos-GFP activation, Insular area, agranular / c-fos-GFP activation, Lateral Septum (LS) / c-fos-GFP activation, Lateral Spetal Nucl, dorsal part / c-fos-GFP activation, Midline Thalamus (Nucl Reuniens, RE) / c-fos-GFP activation, Midline Thalamus (PVT) / c-fos-GFP activation, Motor area, primary (MOp) / c-fos-GFP activation, Motor area, secondary (MOs) / c-fos-GFP activation, Nucleus Accumbens (ACB), core / c-fos-GFP activation, Nucleus Accumbens (ACB), shell / c-fos-GFP activation, Nucleus Accumbens (ACB), whole / c-fos-GFP activation, Olfactory tubercle (OT) / c-fos-GFP activation, Orbital cortex ventral (VO) / c-fos-GFP activation, Orbital cx (ORB), lateral / c-fos-GFP activation, Orbital cx (ORB), medial / c-fos-GFP activation, Piriform cx (PIR) / c-fos-GFP activation, Prelimbic cx (PL) / c-fos-GFP activation, RSPd, v, d and agl / c-fos-GFP activation, Red nucleus (RN) / c-fos-GFP activation, Somatosensory cx, primary / c-fos-GFP activation, Striatum, ventro-lateral / c-fos-GFP activation, Superior Colliculus (SC) / c-fos-GFP activation, Temporal cortex / c-fos-GFP activation, Ventromedial Thalamus (caudally) / c-fos-GFP activation, Zona Inserta: haloperidol 0.25, risperidone 1.0, aripiprazole 1.0 mg/kg, vs saline-injected control

`O=C1CCc2ccc(OCCCCN3CCN(c4cccc(Cl)c4Cl)CC3)cc2N1` [aripiprazole] was tested, and the “brain regions activated (pharmacomap)” value was “activated a partially overlapping pattern, with more cortical areas, including prominent activation of auditory association and entorhinal areas; also recorded: Parts of the amygdala (AMG), hippocampal formation (HF), and midline thalamus (PVT and RE) also showed activation”, the “c-fos-GFP activation, Anterior cingulate cortex (ACAd)” value was “up” and the “c-fos-GFP activation, Anterior cingulate cortex (ACAv)” value was “up”. The “c-fos-GFP activation, Basal, Central, Cortic. Amydgala (AMG)” value was “up”, the “c-fos-GFP activation, Bed nucleus of Stria Terminalis (BST)” value was 0 and the “c-fos-GFP activation, Caudate-putamen (CP, dorso-medial)” value was 0. For the same molecule, the “c-fos-GFP activation, Caudate-putamen (CP, ventro-medial)” value was 0, the “c-fos-GFP activation, Caudoputamen (CP, dorsolateral)” value was “up” and the “c-fos-GFP activation, Caudoputamen (CP, ventrolateral)” value was 0. For the same molecule, the “c-fos-GFP activation, Central medial thalamic nucleus” value was “up”, the “c-fos-GFP activation, Claustrum (CLA)” value was “up” and the “c-fos-GFP activation, Dorsomedial hypoth. (HYP)” value was 0. For the same molecule, the “c-fos-GFP activation, Gostatory Cx (GU)” value was “up”, the “c-fos-GFP activation, Hippocampus: CA1, CA2, CA3 (HF)” value was “up” and the “c-fos-GFP activation, Hippocampus: DG” value was “down”. For the same molecule, the “c-fos-GFP activation, Hypothalamus, ventromedial nuclei” value was 0, the “c-fos-GFP activation, Infralimbic cortex (IL)” value was “up” and the “c-fos-GFP activation, Insular area, agranular” value was “up”. For the same molecule, the “c-fos-GFP activation, Lateral Septum (LS)” value was 0, the “c-fos-GFP activation, Lateral Spetal Nucl, dorsal part” value was “up” and the “c-fos-GFP activation, Midline Thalamus (Nucl Reuniens, RE)” value was “up”. For the same molecule, the “c-fos-GFP activation, Midline Thalamus (PVT)” value was “up”, the “c-fos-GFP activation, Motor area, primary (MOp)” value was “up” and the “c-fos-GFP activation, Motor area, secondary (MOs)” value was “up”. The “c-fos-GFP activation, Nucleus Accumbens (ACB), core” value was “up”, the “c-fos-GFP activation, Nucleus Accumbens (ACB), shell” value was “up” and the “c-fos-GFP activation, Nucleus Accumbens (ACB), whole” value was 0. For the same molecule, the “c-fos-GFP activation, Olfactory tubercle (OT)” value was “up”, the “c-fos-GFP activation, Orbital cortex ventral (VO)” value was 0 and the “c-fos-GFP activation, Orbital cx (ORB), lateral” value was “up”. The “c-fos-GFP activation, Orbital cx (ORB), medial” value was “up”, the “c-fos-GFP activation, Piriform cx (PIR)” value was 0 and the “c-fos-GFP activation, Prelimbic cx (PL)” value was “up”. The “c-fos-GFP activation, RSPd, v, d and agl” value was “up”, the “c-fos-GFP activation, Red nucleus (RN)” value was “down” and the “c-fos-GFP activation, Somatosensory cx, primary” value was “up”. For the same molecule, the “c-fos-GFP activation, Striatum, ventro-lateral” value was “up”, the “c-fos-GFP activation, Superior Colliculus (SC)” value was “up” and the “c-fos-GFP activation, Temporal cortex” value was “up”. For the same molecule, the “c-fos-GFP activation, Ventromedial Thalamus (caudally)” value was “up” and the “c-fos-GFP activation, Zona Inserta” value was “up”.

With `Cc1nc2n(c(=O)c1CCN1CCC(c3noc4cc(F)ccc34)CC1)CCCC2` [risperidone] the “brain regions activated (pharmacomap)” value was “activated the prelimbic (PL), orbital (ORB), piriform (PIR) and gustatory (GU) cortices, the dorsal and ventral CP, ACB, claustrum (CLA), and superior colliculus (SC)”, the “c-fos-GFP activation, Anterior cingulate cortex (ACAd)” value was 0 and the “c-fos-GFP activation, Anterior cingulate cortex (ACAv)” value was 0. For the same molecule, the “c-fos-GFP activation, Basal, Central, Cortic. Amydgala (AMG)” value was 0, the “c-fos-GFP activation, Bed nucleus of Stria Terminalis (BST)” value was 0 and the “c-fos-GFP activation, Caudate-putamen (CP, dorso-medial)” value was 0. For the same molecule, the “c-fos-GFP activation, Caudate-putamen (CP, ventro-medial)” value was 0, the “c-fos-GFP activation, Caudoputamen (CP, dorsolateral)” value was “up” and the “c-fos-GFP activation, Caudoputamen (CP, ventrolateral)” value was “up”. For the same molecule, the “c-fos-GFP activation, Central medial thalamic nucleus” value was 0, the “c-fos-GFP activation, Claustrum (CLA)” value was “up” and the “c-fos-GFP activation, Dorsomedial hypoth. (HYP)” value was 0. For the same molecule, the “c-fos-GFP activation, Gostatory Cx (GU)” value was “up”, the “c-fos-GFP activation, Hippocampus: CA1, CA2, CA3 (HF)” value was 0 and the “c-fos-GFP activation, Hippocampus: DG” value was 0. The “c-fos-GFP activation, Hypothalamus, ventromedial nuclei” value was “down”, the “c-fos-GFP activation, Infralimbic cortex (IL)” value was 0 and the “c-fos-GFP activation, Insular area, agranular” value was 0. The “c-fos-GFP activation, Lateral Septum (LS)” value was 0, the “c-fos-GFP activation, Lateral Spetal Nucl, dorsal part” value was 0 and the “c-fos-GFP activation, Midline Thalamus (Nucl Reuniens, RE)” value was 0. For the same molecule, the “c-fos-GFP activation, Midline Thalamus (PVT)” value was 0, the “c-fos-GFP activation, Motor area, primary (MOp)” value was 0 and the “c-fos-GFP activation, Motor area, secondary (MOs)” value was 0. For the same molecule, the “c-fos-GFP activation, Nucleus Accumbens (ACB), core” value was “up”, the “c-fos-GFP activation, Nucleus Accumbens (ACB), shell” value was 0 and the “c-fos-GFP activation, Nucleus Accumbens (ACB), whole” value was 0. The “c-fos-GFP activation, Olfactory tubercle (OT)” value was 0, the “c-fos-GFP activation, Orbital cortex ventral (VO)” value was “up” and the “c-fos-GFP activation, Orbital cx (ORB), lateral” value was “up”. For the same molecule, the “c-fos-GFP activation, Orbital cx (ORB), medial” value was “up”, the “c-fos-GFP activation, Piriform cx (PIR)” value was “up” and the “c-fos-GFP activation, Prelimbic cx (PL)” value was “down”. For the same molecule, the “c-fos-GFP activation, RSPd, v, d and agl” value was 0, the “c-fos-GFP activation, Red nucleus (RN)” value was 0 and the “c-fos-GFP activation, Somatosensory cx, primary” value was 0. For the same molecule, the “c-fos-GFP activation, Striatum, ventro-lateral” value was 0, the “c-fos-GFP activation, Superior Colliculus (SC)” value was 0 and the “c-fos-GFP activation, Temporal cortex” value was 0. For the same molecule, the “c-fos-GFP activation, Ventromedial Thalamus (caudally)” value was 0 and the “c-fos-GFP activation, Zona Inserta” value was 0.
